Values joined by “and” are separate entries in the source; they are usually repeats but may differ in a detail not shown here. Equal values may be shown once.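 Growth conditions: 96-well plates. Treatment: test compound, 48 hours, 5 concentrations. Analysis: linear interpolation between bracketing concentrations; unreached endpoints set to highest concentration. GI50 marks 50% less growth. TGI is the concentration that stops growth completely.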
The compounds below were run on MDA-MB-468 breast (assay: NCI tumour cell line growth inhibition, 48 h).
With CCN1C(=O)N[C@H]2[C@@H]3NC(=O)c4ccc(Cl)n4[C@@H]3C[C@]21O the GI50 was 229 nM and the TGI was 1.08 µM.
COc1ccc(/C=N/C2=NNC(C)(c3ccccc3O)N2C(Cc2c[nH]c3ccccc23)C(=O)O)cc1 (configuration not stated) was tested, and the GI50 was 2210 nM and the TGI was 7.34 µM.
In the case of CN1CCC(n2cnc(-c3ccc(F)cc3)c2-c2ccnc(Nc3ccccc3)n2)CC1, the GI50 is reported as 3030 nM and the TGI is reported as 10.4 µM.
N#CC1=C(N)Oc2c(ccc3cccnc23)C1c1ccccc1 (configuration not stated) showed a GI50 of 270 nM and a TGI of 0.916 µM.
For COc1ccc2cn3c4ccc(O)cc4[nH]c(=O)c3c2c1, the GI50 was 195 nM and the TGI was 0.678 µM.
COc1ccc(-c2cncn2-c2ccc(-c3nc4cc(OC)c(OC)c(OC)c4s3)cc2)cc1N was tested, and the GI50 was 8600 nM and the TGI was > 100 µM.
With NCCNc1nc2ccc(F)cc2c2c(=O)c3cc(F)ccc3sc12 the GI50 was 1790 nM and the TGI was 3.34 µM.
Compound Cc1ccc(Nn2c(SCC(=O)Nc3nc(-c4ccccc4)cs3)nc(C)c2C)cc1 has a GI50 of 1700 nM and a TGI of 6.67 µM.
Compound CCN1Cc2c(/C=C/c3ccccc3)nc3ccc(OC)cc3c2N(c2cccc(Cl)c2)C1 has a GI50 of 1900 nM and a TGI of 3.67 µM.
With C=C(C)[C@@H]1CC[C@]2(COC(=O)c3ccccc3C(=O)O)CC[C@]3(C)[C@H](CC[C@@H]4[C@@]5(C)CC[C@H](OC(=O)c6ccccc6C(=O)O)C(C)(C)[C@@H]5CC[C@]43C)[C@@H]12 the GI50 was 29800 nM and the TGI was > 100 µM.
Compound Cc1nc2sc(C(=O)Nc3cccc(Cl)c3C)c(N)c2cc1C(O)c1ccccc1 (configuration not stated) has a GI50 of 38.8 nM and a TGI of 16.9 µM.
Work on CSc1ccc(/C(=N/N=C(N)N)c2ccc(Cl)cc2)cc1 yielded a GI50 of 369 nM and a TGI of 1.5 µM.
Work on COc1ccc(-n2nc(C(=O)NCC(=O)Nc3nc4cc(OC)ccc4s3)c3ccccc3c2=O)cc1 yielded a GI50 of 846 nM.
With Nc1n[nH]c2cc(F)c([C@@H]3Nc4c(F)cc5[nH]ncc5c4[C@H]4C5CCC(C5)[C@@H]34)cc12 (some centres not stated) the GI50 was 86 nM and the TGI was 0.25 µM.
COC(=O)[C@]12CC[C@@H](C)[C@H](C)[C@@H]1C1=CC[C@@H]3[C@@]4(C)C(C=O)=C[C@@](C)(COC(=O)c5ccco5)C4=CC[C@@]3(C)[C@]1(C)CC2 showed a GI50 of 54.2 nM and a TGI of 1.94 µM.
Work on CCC1C[N+]2=C(c3cc(OC)c(OC)cc3CC2)c2c1cc1n2CCc2cc(OC)c(OC)cc2-1 (configuration not stated) yielded a GI50 of 402 nM and a TGI of 5.49 µM.
For O=C1Nc2cc(-c3ccc(O)cc3)ccc2/C1=C/c1ccc[nH]1, the GI50 was 123 nM and the TGI was 0.756 µM.
For COC(=O)C(Br)(C(=O)OC)C(Br)C(Br)C(Br)c1ccccc1 (configuration not stated), the GI50 was 1650 nM and the TGI was 3.53 µM.
Work on Cc1cc(O)cc(-c2nn(C)cc2-c2cc(N3CCOCC3)nc(-c3cccnc3)n2)c1 yielded a GI50 of 1310 nM and a TGI of 5.63 µM.
With NC1=C(/C(N)=N/O)C(c2ccccc2)c2ccc3ccccc3c2O1 (configuration not stated) the GI50 was 2130 nM and the TGI was > 60 µM.
With NC1=CC(=O)C(=O)c2ccccc21 the GI50 was 13200 nM and the TGI was 28.5 µM.
In the case of CS(=O)(=O)Nc1cccc(-c2ccc3ncnc(Nc4cncc(Cl)c4)c3c2)c1, the GI50 is reported as 133 nM and the TGI is reported as 0.55 µM.
With CCc1cccc2c3c(sc12)C(c1ccc(OC)cc1)C(C#N)=C(/N=C/c1ccc(Cl)cc1)O3 (configuration not stated) the GI50 was 1930 nM and the TGI was 6.68 µM.
With CN1CCN(c2ccc(NC(=O)c3cncnc3Nc3ccc4c(ccn4Cc4cccc(F)c4)c3)cc2)CC1 the GI50 was 1910 nM and the TGI was 6.92 µM.
Compound COc1ccc2c(ccc3oc([N+](=O)[O-])cc32)c1 has a GI50 of 121 nM and a TGI of 0.338 µM.
With CCN(CC)CCOc1ccccc1-n1c(C)ccc1-c1ccccc1 the GI50 was 10000 nM and the TGI was 24.4 µM.
With O=C(C[n+]1ccn(CC(OCc2ccc(Cl)cc2Cl)c2ccc(Cl)cc2Cl)c1)c1ccc(F)cc1 (configuration not stated) the GI50 was 732 nM and the TGI was 2.2 µM.
Compound COC(=O)C[C@@H]1CC=CC(=O)/C1=C(O)/C=C/c1ccccc1 has a GI50 of 666 nM and a TGI of 2.15 µM.
CCN(CC)CCC(CNc1c(C)cnc2cc(Cl)ccc12)c1ccc(Cl)c(Cl)c1 (configuration not stated) gave a GI50 of 2060 nM and a TGI of 4.64 µM.
Compound CC1(C)CC(C(=O)OCCCCCCCCCCC[P+](c2ccccc2)(c2ccccc2)c2ccccc2)C(C)(C)N1O (configuration not stated) has a GI50 of 87.5 nM and a TGI of 0.637 µM.
With Nc1nc(N)c2cc(S(=O)(=O)c3ccccc3)ccc2n1 the GI50 was 8010 nM and the TGI was > 100 µM.
CC[C@H](C)C(=O)O[C@H]1C[C@@H](C)C=C2C=C[C@H](C)[C@H](CC[C@@H]3C[C@@H](O)CC(=O)O3)[C@H]21 was tested, and the GI50 was 2030 nM and 2840 nM and the TGI was 14.6 µM and 14.8 µM.
O=C1CCCc2cc3c(cc21)CC1(C3)Cc2cc3c(cc2C1)C(=O)CCC3 showed a GI50 of 2920 nM and a TGI of 62.7 µM.
In the case of COc1ccc(/C=C2/C(=O)N(/C=C3\C(=O)Oc4ccccc4C3=O)C(=NC(C)=O)N2C)cc1OC, the GI50 is reported as > 100000 nM and the TGI is reported as > 100 µM.
For CC(=O)OCCC/C(=C/c1cc2ccccc2c2ccccc12)[N+](=O)[O-], the GI50 was 291 nM and the TGI was 1.06 µM.
In the case of O=C(N/N=C\c1ccc([N+](=O)[O-])cc1)c1ccc2nc(-c3ccc(Br)cc3)[nH]c2c1, the GI50 is reported as 856 nM and the TGI is reported as 2.06 µM.
CCCCCCNC(=O)Oc1ccc(/C(=C(/C)c2ccccc2)c2ccc(OCCN3CCCCCC3)cc2)cc1 was tested, and the GI50 was 4900 nM and the TGI was 19.5 µM.
For O=C(Cc1ccc(-c2ccc(OCCN3CCOCC3)cc2)cn1)NCc1ccccc1, the GI50 was 24.6 nM and the TGI was > 3.57 µM.
Compound O=c1[nH]c(=O)n(C2CC(O)C(CO)O2)cc1F (configuration not stated) has a GI50 of 250 nM and a TGI of 20.6 µM.
For Fc1cccc(-c2nc(-c3c[nH]c4ncccc34)cs2)c1, the GI50 was > 100000 nM and the TGI was > 100 µM.
In the case of Nc1ncc(-c2ccc3ncnc(N4CCc5cc(F)c(F)cc54)c3c2)cn1, the GI50 is reported as 1890 nM and the TGI is reported as 7.79 µM.
With COc1ccc(C(=O)c2cc(C)c(OC)c(C)c2)c(OC)c1OC(=O)C(Cl)Cl the GI50 was 398 nM.
Work on O=C(Oc1c(Cl)c(Cl)c(Cl)c(Cl)c1Cl)C1CCCN1C(=O)OCc1ccccc1 (configuration not stated) yielded a GI50 of 2900 nM and a TGI of 12.6 µM.
With COc1cc(NC(=O)c2cc3ccccc3cc2O)c(OC)cc1Cl the GI50 was 2510 nM and the TGI was 8.11 µM.
Compound COc1ncc(-c2ccc3ncnc(Nc4cccc(Cl)c4)c3c2)cc1NS(C)(=O)=O has a GI50 of 211 nM and a TGI of 0.913 µM.
In the case of C=CC(=O)N1CCC(CNc2ncnc(N)c2-c2ccc(Oc3ccccc3)cc2)CC1, the GI50 is reported as 7290 nM and the TGI is reported as 55.7 µM.
CCCCc1n(Cc2ccc3ccccc3n2)cc[n+]1Cc1ccc2ccccc2c1 gave a GI50 of 216 nM and a TGI of 0.903 µM.
